According to patent US12565501B2, “Muscarinic acetylcholine M1 receptor antagonists” (Contineum Therapeutics, Inc., priority 2019, dated 2026):

Target: T1, human M1 receptor (Homo sapiens, UniProt P11229)
T1 sequence (P11229 1-460): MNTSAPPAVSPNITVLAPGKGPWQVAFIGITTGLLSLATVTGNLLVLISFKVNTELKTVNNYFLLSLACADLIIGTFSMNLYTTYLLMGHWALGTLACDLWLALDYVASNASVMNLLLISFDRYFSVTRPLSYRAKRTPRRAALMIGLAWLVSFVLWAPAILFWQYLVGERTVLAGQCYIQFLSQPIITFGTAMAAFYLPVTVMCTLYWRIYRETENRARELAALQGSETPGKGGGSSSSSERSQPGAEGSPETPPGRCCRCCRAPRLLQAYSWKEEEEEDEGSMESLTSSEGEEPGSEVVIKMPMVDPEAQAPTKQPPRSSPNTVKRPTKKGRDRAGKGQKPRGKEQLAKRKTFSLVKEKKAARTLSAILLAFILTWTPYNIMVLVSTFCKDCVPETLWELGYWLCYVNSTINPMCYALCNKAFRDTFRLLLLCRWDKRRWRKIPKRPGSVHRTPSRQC
Experiment: In vitro functional assay of muscarinic acetylcholine receptor activity (aequorin calcium flux, reversal of EC80 acetylcholine response)
Type: cell-based
Conditions: CHO-K1 cells stably expressing human M1 receptor with aequorin; acetylcholine at EC80; calcium flux (luminescence); read-out: M1 IC50
Protocol: CHO-K1 cells stably expressing human M1 receptor with aequorin (Perkin Elmer) were grown in F12 media (Gibco) containing 10% FBS (ATCC), 0.4 mg/mL geneticin (Sigma-Aldrich) and 0.25 mg/mL Zeocin (Invitrogen). Cells were grown as per the manufacturer's protocol. For compound testing, cells were grown to confluency and detached gently with Accutase (Sigma-Aldrich) followed by centrifugation for 5 min at 150× g. Cells were then re-suspended in assay buffer (i.e. DMEM/F-12 HEPES without phenol red (Invitrogen) with 0.1% BSA (Sigma-Aldrich)) at a density of 5×10^6 cells/ml. Under sterile conditions, 5 μM coelenterazine (Invitrogen) was added to the cells, mixed, then incubated at room temperature protected from light, with gentle agitation, for 4 h.
Primary compound plates were prepared in 100% DMSO in opaque 96-well plates (VWR) and serially diluted in half log increments. Secondary compound plates were prepared at 3× concentration in assay buffer. Compounds were added to white, clear bottom tissue culture treated 96-well plates (Fisher Scientific). Coelenterazine-loaded cells were then added at 5×10^5 cells/well.
Compounds and cells were incubated at room temperature for 30 min in the dark. Acetylcholine at the EC80 concentration was added and calcium flux measured using a FlexStation 3 (Molecular Devices). Sigmoidal dose-response curves were generated by measuring luminescence over 40 sec and calculating the area under the curve. Dose response curves and IC50 values were generated using Prism (GraphPad). Compounds were tested at a final concentration range of 100 μM to […] in 0.1% DMSO.

Row | Compound | IC50
1 | 6-(3-(2-(1-(1-methyl-6-oxo-1,6-dihydropyridin-3-yl) cyclopropoxy)acetyl)-3,8-diazabicyclo[3.2.1]octan- 8-yl)nicotinonitrile [Example 301] | 100 to 1000 nM
2 | N#Cc1ccc(N2[C@@H]3CC[C@H]2CN(C(=O)CCN2CCC2c2ccc(F)cc2)C3)nc1 (mixture of isomers) [Example 23, 6-(3-(3-(2-(4-fluorophenyl)azetidin-1-yl)propanoyl)-3,8-diazabicyclo[3.2.1]octan-8-yl)nicotinonitrile] | 1000 to 10000 nM
3 | COc1cccc2c1CCN(CCC(=O)N1C[C@H]3CC[C@@H](C1)N3c1ccc(C#N)cn1)C2C (mixture of isomers) [Example 38, 6-(3-(3-(5-methoxy-1-methyl-3,4-dihydroisoquinolin-2(1H)-yl)propanoyl)-3,8-diazabicyclo[3.2.1]octan-8-yl)nicotinonitrile] | 1000 to 10000 nM
4 | CC(NCCC(=O)N1CC2CCC(C1)N2c1ccc(C#N)cn1)c1cccc2ncccc12 (racemic) [Example 48, 6-(3-(3-((1-(quinolin-5-yl)ethyl)amino)propanoyl)-3,8-diazabicyclo[3.2.1]octan-8-yl)nicotinonitrile] | < 10 nM
5 | CC(C)(O)C(NCCC(=O)N1C[C@H]2CC[C@@H](C1)N2c1ccc(C#N)cn1)c1ccccc1 (mixture of isomers) [Example 49, 6-(3-(3-((2-hydroxy-2-methyl-1-phenylpropyl)amino)propanoyl)-3,8-diazabicyclo[3.2.1]octan-8-yl)nicotinonitrile] | 1000 to 10000 nM
6 | COc1cnc2cccc(C(C)NCCC(=O)N3C[C@H]4CC[C@@H](C3)N4c3ccc(C#N)cn3)c2c1 (mixture of isomers) [Example 50, 6-(3-(3-((1-(3-methoxyquinolin-5-yl)ethyl)amino)propanoyl)-3,8-diazabicyclo[3.2.1]octan-8-yl)nicotinonitrile] | < 10 nM
7 | CC(NCCC(=O)N1C[C@H]2CC[C@@H](C1)N2c1ccc(C#N)cn1)c1cccc2ncsc12 (mixture of isomers) [Example 51, 6-(3-(3-((1-(benzo[d]thiazol-7-yl)ethyl)amino)propanoyl)-3,8-diazabicyclo[3.2.1]octan-8-yl)nicotinonitrile] | 10 to 100 nM
8 | N#Cc1ccc(N2[C@@H]3CC[C@H]2CN(C(=O)CCNC(c2cccc4ncsc24)C(F)(F)F)C3)nc1 (mixture of isomers) [Example 52, 6-(3-(3-((1-(benzo[d]thiazol-7-yl)-2,2,2-trifluoroethyl)amino)propanoyl)-3,8-diazabicyclo[3.2.1]octan-8-yl)nicotinonitrile] | < 10 nM
9 | CC(NCCC(=O)N1C[C@H]2CC[C@@H](C1)N2c1ccc(C#N)cn1)c1c(F)ccc2nccn12 (mixture of isomers) [Example 53, 6-(3-(3-((1-(6-fluoroimidazo[1,2-a]pyridin-5-yl)ethyl)amino)propanoyl)-3,8-diazabicyclo[3.2.1]octan-8-yl)nicotinonitrile] | 10 to 100 nM
10 | CC(NCC(=O)N1CC2CCC(C1)N2c1ccc(C#N)cn1)c1cccc2ncnn12 (racemic) [Example 54, 6-(3-((1-([1,2,4]triazolo[1,5-a]pyridin-5-yl)ethyl)glycyl)-3,8-diazabicyclo[3.2.1]octan-8-yl)nicotinonitrile] | 10 to 100 nM
11 | COc1c(F)cccc1C(C)NCC(=O)N1CC2CCC(C1)N2c1ccc(C#N)cn1 (racemic) [Example 55, 6-(3-((1-(3-fluoro-2-methoxyphenyl)ethyl)glycyl)-3,8-diazabicyclo[3.2.1]octan-8-yl)nicotinonitrile] | < 10 nM
12 | COc1cc(F)ccc1C(C)NCC(=O)N1CC2CCC(C1)N2c1ccc(C#N)cn1 (racemic) [Example 56, 6-(3-((1-(4-fluoro-2-methoxyphenyl)ethyl)glycyl)-3,8-diazabicyclo[3.2.1]octan-8-yl)nicotinonitrile] | < 10 nM
13 | COc1cc(C(C)NCC(=O)N2CC3CCC(C2)N3c2ccc(C#N)cn2)ccc1F (racemic) [Example 57, 6-(3-((1-(4-fluoro-3-methoxyphenyl)ethyl)glycyl)-3,8-diazabicyclo[3.2.1]octan-8-yl)nicotinonitrile] | < 10 nM
14 | N#Cc1ccc(N2C3CCC2CN(C(=O)CNC2CCc4ccccc42)C3)nc1 (racemic) [Example 89, 6-(3-((2,3-dihydro-1H-inden-1-yl)glycyl)-3,8-diazabicyclo[3.2.1]octan-8-yl)nicotinonitrile] | 1000 to 10000 nM
15 | COc1ccc2c(c1)C(NCC(=O)N1CC3CCC(C1)N3c1ccc(C#N)cn1)CC2 (racemic) [Example 90, 6-(3-((6-methoxy-2,3-dihydro-1H-inden-1-yl)glycyl)-3,8-diazabicyclo[3.2.1]octan-8-yl)nicotinonitrile] | 100 to 1000 nM
16 | N#Cc1ccc(N2C3CCC2CN(C(=O)CNC2CCc4cc(F)cc(F)c42)C3)nc1 (racemic) [Example 91, 6-(3-((5,7-difluoro-2,3-dihydro-1H-inden-1 yl)glycyl)-3,8-diazabicyclo[3.2.1]octan-8-yl)nicotinonitrile] | 100 to 1000 nM
17 | N#Cc1ccc(N2C3CCC2CN(C(=O)CN2CCC2c2ccc(F)cc2)C3)nc1 (racemic) [Example 104] | > 1000 nM
18 | CC1c2ccccc2CCN1CC(=O)N1CC2CCC(C1)N2c1ccc(C#N)cn1 (racemic) [Example 106, 6-(3-(2-(1-methyl-3,4-dihydroisoquinolin-2(1H)-yl)acetyl)-3,8-diazabicyclo[3.2.1]octan-8-yl)nicotinonitrile] | 100 to 1000 nM
19 | COc1ccc2c(c1)C(C)N(CC(=O)N1CC3CCC(C1)N3c1ccc(C#N)cn1)CC2 (racemic) [Example 120, 6-(3-(2-(7-methoxy-1-methyl-3,4-dihydroisoquinolin-2(1H)-yl)acetyl)-3,8-diazabicyclo[3.2.1]octan-8-yl)nicotinonitrile] | 1000 to 10000 nM
20 | COc1cccc2c1CCN(CC(=O)N1CC3CCC(C1)N3c1ccc(C#N)cn1)C2C (racemic) [Example 121, 6-(3-(2-(5-methoxy-1-methyl-3,4-dihydroisoquinolin-2(1H)-yl)acetyl)-3,8-diazabicyclo[3.2.1]octan-8-yl)nicotinonitrile] | 100 to 1000 nM
21 | COc1cncc(C(NCC(=O)N2CC3CCC(C2)N3c2ccc(C#N)cn2)C(F)F)c1 (racemic) [Example 127, 6-(3-((2,2-difluoro-1-(5-methoxypyridin-3-yl)ethyl)glycyl)-3,8-diazabicyclo[3.2.1]octan-8-yl)nicotinonitrile] | < 10 nM
22 | N#Cc1ccc(N2C3CCC2CN(C(=O)CNC(c2ccc(F)cc2F)C(F)F)C3)nc1 (racemic) [Example 128, 6-(3-((1-(2.4-difluorophenyl)-2,2-difluoroethyl)glycyl)-3,8-diazabicyclo[3.2.1]octan-8-yl)nicotinonitrile] | 10 to 100 nM
23 | N#Cc1ccc(N2C3CCC2CN(C(=O)CCNC(c2ccc(F)c(F)c2)C(F)F)C3)nc1 (racemic) [Example 129, 6-(3-(3-((1-(3,4-difluorophenyl)-2,2-difluoroethyl)amino)propanoyl)-3,8-diazabicyclo[3.2.1]octan-8-yl)nicotinonitrile] | < 10 nM
24 | CC(SCC(=O)N1CC2CCC(C1)N2c1ccc(C#N)cn1)c1ccccc1 (racemic) [Example 132, 6-(3-(2-((1-phenylethyl)thio)acetyl)-3,8-diazabicyclo[3.2.1]octan-8-yl)nicotinonitrile] | < 10 nM
25 | CC(SCC(=O)N1CC2CCC(C1)N2c1ccc(C#N)cn1)c1ccc(F)cc1 (racemic) [Example 133, 6-(3-(2-((1-(4-fluorophenyl)ethyl)thio)acetyl)-3,8-diazabicyclo[3.2.1]octan-8-yl)nicotinonitrile] | 10 to 100 nM
26 | CC(SCCC(=O)N1CC2CCC(C1)N2c1ccc(C#N)cn1)c1ccccc1 (racemic) [Example 134, 6-(3-(3-((1-phenylethyl)thio)propanoyl)-3,8-diazabicyclo[3.2.1]octan-8-yl)nicotinonitrile] | 100 to 1000 nM
27 | CC(SCCC(=O)N1CC2CCC(C1)N2c1ccc(C#N)cn1)c1ccc(F)cc1 (racemic) [Example 135, 6-((3-((1-(4-fluorophenyl)ethyl)thio)propanoyl)-3,8-diazabicyclo[3.2.1]octan-8-yl)nicotinonitrile] | 1000 to 10000 nM
28 | CC(SCCC(=O)N1CC2CCC(C1)N2c1ccc(C#N)cn1)c1ccccc1Br (racemic) [Example 136, 6-((3-((1-(2-bromophenyl)ethyl)thio)propanoyl)-3,8-diazabicyclo[3.2.1]octan-8-yl)nicotinonitrile] | 100 to 1000 nM
29 | CC(c1ccc(F)c(F)c1)N1CC(C(=O)N2CC3CCC(C2)N3c2ccc(C#N)cn2)C1 (racemic) [Example 137, 6-(3-(1-(1-(3,4-difluorophenyl)ethyl)azetidine-3-carbonyl)-3,8-diazabicyclo[3.2.1]octan-8-yl)nicotinonitrile] | 100 to 1000 nM
